Source: US20220017877A1, “BILIRUBIN OXIDASE ACTIVITY IMPROVING METHOD, AND BILIRUBIN OXIDASE PRODUCT” (OZEKI CORPORATION, priority 2018, published 2022)
Read-outs that look alike come from different tables or passages of the source.

Molecular target: T1, recombinant BOD (bilirubin oxidase) derived from Myrothecium verrucaria MT-1 (Albifimbria verrucaria, UniProt Q12737)
T1 construct: made in house; host or cells: Aspergillus sp
T1 sequence (Q12737 39-572): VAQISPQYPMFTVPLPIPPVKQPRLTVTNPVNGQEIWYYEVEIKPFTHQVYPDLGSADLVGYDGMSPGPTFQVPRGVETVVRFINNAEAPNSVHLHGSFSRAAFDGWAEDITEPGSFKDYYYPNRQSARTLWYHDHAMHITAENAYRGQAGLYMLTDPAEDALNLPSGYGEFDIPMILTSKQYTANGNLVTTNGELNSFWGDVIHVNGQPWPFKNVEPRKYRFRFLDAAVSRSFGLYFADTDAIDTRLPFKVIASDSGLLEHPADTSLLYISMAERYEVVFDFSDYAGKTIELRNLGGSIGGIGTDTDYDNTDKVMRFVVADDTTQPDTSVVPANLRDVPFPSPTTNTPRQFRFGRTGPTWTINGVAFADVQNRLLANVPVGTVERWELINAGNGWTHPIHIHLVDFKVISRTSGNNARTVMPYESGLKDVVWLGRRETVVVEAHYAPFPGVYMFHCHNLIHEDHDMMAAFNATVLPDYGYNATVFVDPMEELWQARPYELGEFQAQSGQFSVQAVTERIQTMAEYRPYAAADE
Experiment: BOD activity after leaving the BOD solution with an activity improving agent at 5 to 50° C. in a deoxygenated atmosphere (Test Example 2)
Format: biochemical
Settings: for activity at 4000 µM / increase of BOD activity as compared with that prior to leaving: 4 mM
Text: In Test Example 1, a BOD gene derived from a Myrothecium verrucaria MT-1 (GenBank accession number: D12579.1) was introduced into an Aspergillus sp., and then a recombinant BOD (hereinafter, also referred to simply as “BOD”) expressed in the Aspergillus sp. was purified by using a well-known technique and then used as the BOD. The BOD gene derived from the Myrothecium verrucaria MT-1 was codon-optimized in accordance with a gene sequence of the Aspergillus sp., and then introduced into the Aspergillus sp. Further, the BOD thus purified was dissolved in a 50 mM glycine-KOH (pH 8.5) buffer so that the concentration of the BOD became 1.0 mg/mL. Then, a resultant solution was used as a BOD enzyme solution.
The enzymatic activity of the BOD was measured as follows. To 1780 μL of a 50 mM potassium phosphate buffer (pH 6.5), 200 μL of a 20 mM ABTS substrate solution was added, so that a mixed solution (1980 μL) was prepared. This mixed solution was incubated for 1 min at 37° C. Thereafter, 20 μL of a solution containing the BOD (specifically, a BOD solution for evaluation, which will be described later) was added to the mixed solution, and a resultant mixed solution (2 mL) was incubated at 37° C. While the mixed solution was incubated, the absorbance of the mixed solution at a wavelength of 436 nm was measured immediately after that addition of the BOD solution for evaluation (at 0 seconds) and thereafter every 20 seconds. On the basis of (i) the absorbance of the mixed solution at a wavelength of 436 nm immediately after the addition of the BOD solution for evaluation and (ii) the absorbance of the mixed solution at a wavelength of 436 nm after a lapse of 1 minute from the addition of the BOD solution for evaluation, calculation was carried out for obtaining an increase rate per minute of the absorbance of the mixed solution at a wavelength of 436 nm after the addition of the BOD solution for evaluation. The BOD activity (unit) in the BOD solution for evaluation was calculated from the increase rate. In the present specification, the amount of enzyme for oxidizing 1 μmol of ABTS per minute was defined as one unit.
The following describes a specific test method in Test Example 2. A BOD solution containing an activity improving agent was prepared as in Test Example 1. Further, another BOD solution which contained no activity improving agent (to which no activity improving agent was added) was prepared and used as a control. In Test Example 2, L-ascorbic acid or uric acid was used as the activity improving agent. Moreover, the final concentration of L-ascorbic acid in the BOD solution was set to 4 mM, and the final concentration of uric acid in the BOD solution was set to 20 mM. In addition, in Test Example 2, the concentration of the BOD in the BOD enzyme solution was set to 3.0 mg/mL.
Each of the above BOD solutions and a deoxygenating agent (Anaero Pack-Kenki manufactured by Mitsubishi Gas Chemical Company, Inc.) were included in one container (pouch) which was not permeable to oxygen. Then, the container was sealed, so that a BOD container was prepared. The BOD container was left at room temperature (approximately 25° C.) for approximately 2 hours, so that an inner atmosphere of the container became the deoxygenated atmosphere. Thereafter, the BOD container was left in a thermostatic chamber set at 5° C., 10° C., 20° C., 30° C., 40° C., or 50° C. for a certain period of time. Here, (a) the BOD solution without any additive was left for 1 day, 3 days, 7 days, 14 days, or 29 days, (b) the BOD solution containing L-ascorbic acid was left for 1 day, 3 days, 7 days, or 14 days, and (c) the BOD solution containing uric acid was left for 1 day, 3 days, 8 days, 14 days, or 28 days. Three samples (BOD containers) were prepared for each condition. After leaving the BOD containers under the above conditions, the BOD solution was collected from each of the BOD containers and used as a BOD solution for evaluation. […]

O=C1O[C@H]([C@@H](O)CO)C(O)=C1O [L-ascorbic acid] was tested, and the activity at 4000 µM (5° C., Day 0, read-out: Activity (%) Day 0) was 100%, the activity at 4000 µM (5° C., Day 1, read-out: Activity (%) Day 1) was 92% and the activity at 4000 µM (5° C., Day 3, read-out: Activity (%) Day 3) was 95%. For the same molecule, the activity at 4000 µM (5° C., Day 7, read-out: Activity (%) Day 7) was 107%, the activity at 4000 µM (5° C., Day 14, read-out: Activity (%) Day 14) was 55% and the activity at 4000 µM (10° C., Day 0, read-out: Activity (%) Day 0) was 100%. For the same molecule, the activity at 4000 µM (10° C., Day 1, read-out: Activity (%) Day 1) was 101%, the activity at 4000 µM (10° C., Day 3, read-out: Activity (%) Day 3) was 120% and the activity at 4000 µM (10° C., Day 7, read-out: Activity (%) Day 7) was 146%. The activity at 4000 µM (10° C., Day 14, read-out: Activity (%) Day 14) was 147%, the activity at 4000 µM (20° C., Day 0, read-out: Activity (%) Day 0) was 100% and the activity at 4000 µM (20° C., Day 1, read-out: Activity (%) Day 1) was 115%. The activity at 4000 µM (20° C., Day 3, read-out: Activity (%) Day 3) was 160%, the activity at 4000 µM (20° C., Day 7, read-out: Activity (%) Day 7) was 195% and the activity at 4000 µM (20° C., Day 14, read-out: Activity (%) Day 14) was 188%. For the same molecule, the activity at 4000 µM (30° C., Day 0, read-out: Activity (%) Day 0) was 100%, the activity at 4000 µM (30° C., Day 1, read-out: Activity (%) Day 1) was 164% and the activity at 4000 µM (30° C., Day 3, read-out: Activity (%) Day 3) was 205%. The activity at 4000 µM (30° C., Day 7, read-out: Activity (%) Day 7) was 204%, the activity at 4000 µM (30° C., Day 14, read-out: Activity (%) Day 14) was 229% and the activity at 4000 µM (40° C., Day 0, read-out: Activity (%) Day 0) was 100%. For the same molecule, the activity at 4000 µM (40° C., Day 1, read-out: Activity (%) Day 1) was 212%, the activity at 4000 µM (40° C., Day 3, read-out: Activity (%) Day 3) was 216% and the activity at 4000 µM (40° C., Day 7, read-out: Activity (%) Day 7) was 215%. It also gave an activity at 4000 µM (40° C., Day 14, read-out: Activity (%) Day 14) of 237%, an activity at 4000 µM (50° C., Day 0, read-out: Activity (%) Day 0) of 100% and an activity at 4000 µM (50° C., Day 1, read-out: Activity (%) Day 1) of 220%. It also gave an activity at 4000 µM (50° C., Day 3, read-out: Activity (%) Day 3) of 211%, an activity at 4000 µM (50° C., Day 7, read-out: Activity (%) Day 7) of 212% and an activity at 4000 µM (50° C., Day 14, read-out: Activity (%) Day 14) of 238%. For the same molecule, the “increase of BOD activity as compared with that prior to leaving” value (“increase of BOD activity” for short) (one day at not lower than 40° C.) was no less than 2 times, the “increase of BOD activity” value (seven days at 20° C.) was no less than 2 times and the “increase of BOD activity” value (three days at 30° C.) was no less than 2 times. The “BOD activity increase at 5° C. compared with not lower than 10° C.” value (BOD containers left at 5° C.) was “not found to be increased to an extend that was achieved”.
